# Values joined by “and” are separate entries in the source; they are usually repeats but may differ in a detail not shown here. Equal values may be shown once.
# Test system: NCI-H196 complex spheroid growth, percent test/control
# Assay: Anticancer human tumor NCI-H196 cell line growth inhibition [AhR];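 further: seven days of drug exposure starting three days after plating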;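 on viability, T/C: 100% = DMSO vehicle control wells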
# Settings: for viability, T/C: stronger effect = lower value
# How it was run: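 Complex tumor spheroids co-cultured with HUVEC and human MSC stroma; AhR antagonists tested in combination with standard-of-care and investigational agents. Top concentration at or near clinical Cmax (else 10 microM), half-log dilutions; growth expressed as percent test/control.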
# [1] = curve of first compound, second compound 0.1 µM
# [2] = curve of first compound, second compound 0.316 µM
# [3] = curve of first compound, second compound 1 µM
# [4] = curve of first compound, second compound 3.16 µM
# [5] = curve of first compound, second compound 10 µM
# [6] = second compound 0.1 µM, first compound 0.00949 µM
# [7] = second compound 0.1 µM, first compound 0.03 µM
# [8] = second compound 0.1 µM, first compound 0.0949 µM
# [9] = second compound 0.1 µM, first compound 0.3 µM
# [10] = second compound 0.316 µM, first compound 0.00949 µM
# [11] = second compound 0.316 µM, first compound 0.03 µM
# [12] = second compound 0.316 µM, first compound 0.0949 µM
# [13] = second compound 0.316 µM, first compound 0.3 µM
# [14] = second compound 1 µM, first compound 0.00949 µM
# [15] = second compound 1 µM, first compound 0.03 µM
# [16] = second compound 1 µM, first compound 0.0949 µM
# [17] = second compound 1 µM, first compound 0.3 µM
# [18] = second compound 3.16 µM, first compound 0.00949 µM
# [19] = second compound 3.16 µM, first compound 0.03 µM
# [20] = second compound 3.16 µM, first compound 0.0949 µM
# [21] = second compound 3.16 µM, first compound 0.3 µM
# [22] = second compound 10 µM, first compound 0.00949 µM
# [23] = second compound 10 µM, first compound 0.03 µM
# [24] = second compound 10 µM, first compound 0.0949 µM
# [25] = second compound 10 µM, first compound 0.3 µM
IC50 [1],IC50 [2],IC50 [3],IC50 [4],IC50 [5],Structure (SMILES),"viability, T/C [6]","viability, T/C [7]","viability, T/C [8]","viability, T/C [9]","viability, T/C [10]","viability, T/C [11]","viability, T/C [12]","viability, T/C [13]","viability, T/C [14]","viability, T/C [15]","viability, T/C [16]","viability, T/C [17]","viability, T/C [18]","viability, T/C [19]","viability, T/C [20]",further results
7.65 nM,8.51 nM,7.35 nM,9.9 nM,5.54 nM,CC(C)CC(NC(=O)C(Cc1ccccc1)NC(=O)c1cnccn1)B(O)O (configuration not stated) + Cc1cncc(-c2nc(NCCc3c[nH]c4ccccc34)c3ncn(C(C)C)c3n2)c1,37.6%,1.78%,1.16%,1.38%,45%,1.25%,2.43%,1.51%,36.1%,1.32%,1.62%,0.94%,51.9%,0.84%,0.89%,"viability, T/C (second compound 0.1 µM, first compound 0.000949 µM): 98.2%; viability, T/C (second compound 0.1 µM, first compound 0.003 µM): 109%; viability, T/C (second compound 0.316 µM, first compound 0.000949 µM): 95.2%; viability, T/C (second compound 0.316 µM, first compound 0.003 µM): 99.1%; viability, T/C (second compound 1 µM, first compound 0.000949 µM): 102%; viability, T/C (second compound 1 µM, first compound 0.003 µM): 98.7%; viability, T/C (second compound 3.16 µM, first compound 0.000949 µM): 105%; viability, T/C (second compound 3.16 µM, first compound 0.003 µM): 103%; viability, T/C [21]: 2.1%; viability, T/C (second compound 10 µM, first compound 0.000949 µM): 83.2%; viability, T/C (second compound 10 µM, first compound 0.003 µM): 95%; viability, T/C [22]: 15.8%; viability, T/C [23]: 0.72%; viability, T/C [24]: 0.96%; viability, T/C [25]: 1.09%"
–,–,–,–,–,CC1COCCN1c1cc(C2(S(C)(=N)=O)CC2)nc(-c2ccnc3[nH]ccc23)n1 (configuration not stated),–,–,–,–,–,–,–,–,–,–,–,–,–,–,–,"viability, T/C (compound 0.0316 µM): 99.9% and 98.5% and 104%; viability, T/C (compound 0.1 µM): 100% and 104% and 96%; viability, T/C (compound 0.316 µM): 104% (2×) and 95.2%; viability, T/C (compound 1 µM): 88% and 95.2% and 97.4%; viability, T/C (compound 3.16 µM): 97.7% and 93.7% and 85%; viability, T/C (compound 10 µM): 69.4% and 81% and 77.6%; IC50 (curve of compound): > 10000 nM"
45.1 nM,37.4 nM,33.3 nM,38.4 nM,45.8 nM,O=C(C=Cn1cnc(-c2cc(C(F)(F)F)cc(C(F)(F)F)c2)n1)NNc1cnccn1 + CC(CO)NC(=O)c1cc(-c2ccc(Cl)cc2)nn(-c2cnn(C)c2)c1=O,71.2%,71.1%,11.6%,11.1%,74.7%,58.2%,14.9%,12.3%,73.2%,53.6%,14.3%,7.96%,75.9%,59.1%,16.4%,"viability, T/C (second compound 0.1 µM, first compound 0.949 µM): 7.23%; viability, T/C (second compound 0.1 µM, first compound 3 µM): 6.89%; viability, T/C (second compound 0.316 µM, first compound 0.949 µM): 8.19%; viability, T/C (second compound 0.316 µM, first compound 3 µM): 7.69%; viability, T/C (second compound 1 µM, first compound 0.949 µM): 8.07%; viability, T/C (second compound 1 µM, first compound 3 µM): 6.9%; viability, T/C [21]: 7.92%; viability, T/C (second compound 3.16 µM, first compound 0.949 µM): 6.29%; viability, T/C (second compound 3.16 µM, first compound 3 µM): 7.99%; viability, T/C [22]: 80.6%; viability, T/C [23]: 69.1%; viability, T/C [24]: 17.2%; viability, T/C [25]: 11.2%; viability, T/C (second compound 10 µM, first compound 0.949 µM): 10.8%; viability, T/C (second compound 10 µM, first compound 3 µM): 7.46%"
